Values of other authors in US12128121B2, “Compositions comprising organo-silanol compounds, and applications” (EXSYMOL, priority 2020, dated 2024).
Read-outs that look alike come from different tables or passages of the source.

Q: With `C[Si](O)(O)O` [CH3—Si(OH)3, monomethylsilanetriol] as the compound, how does the concentration in water (as silicon, CH3—Si(OH)3) read?
A: ~588 mg Si/I

Q: What about the concentration in water (limit before self-condensation) of the same compound?
A: ~21 mM
